What was measured:
HeLa cells = assay: Potentiation Factor (PF50): MMS growth inhibition, SRB assay; type: cell-based; conditions: MMS 0-10 μg/ml, ratio IC50 control / IC50 + inhibitor; for PF50 (30 nM): PARP inhibitor at 30 nM; for PF50 (200 nM): PARP inhibitor at 200 nM
Experimental: The Potentiation Factor (PF50) for compounds is calculated as a ratio of the IC50 of control cell growth divided by the IC50 of cell growth+PARP inhibitor. Growth inhibition curves for both control and compound treated cells are in the presence of the alkylating agent methyl methanesulfonate (MMS). The test compounds were used at a fixed concentration of 0.2 micromolar. The concentrations of MMS were over a range from 0 to 10 μg/ml.
2,000 HeLa cells were seeded into each well of a flat-bottomed 96-well microtiter plate in a volume of 100 μl and incubated for 6 hours at 37° C. Cells were either replaced with media alone or with media containing PARP inhibitor at a final concentration of 30 nM or 200 nM. […] Cells treated with PARP inhibitor alone were used to assess the growth inhibition by the PARP inhibitor.
Cells were left for a further 16 hours before replacing the media and allowing the cells to grow for a further 72 hours at 37° C. The media was then removed and the cells fixed with 100 μl of ice cold 10% (w/v) trichloroacetic acid. The plates were incubated at 4° C. for 20 minutes and then washed four times with water. Each well of cells was then stained with 100 μl of 0.4% (w/v) SRB in 1% acetic acid for 20 minutes before washing four times with 1% acetic acid. Plates were then dried for 2 hours at room temperature. The dye from the stained cells was solubilized by the addition of 100 μl of 10 mM Tris Base into each well.

[1] = biological target: T1, P-glycoprotein (KBA1 cells) (Homo sapiens, UniProt P08183); assay: P-gp substrate activity, Dose Modification Ratio with/without Verapamil, SRB assay; type: in vitro ADME; conditions: IC50 without Verapamil / IC50 with 20 μM Verapamil, 5 days
T1 construct: Cells from the Hela cell line known as KBA1, which expressed high P-glycoprotein; endogenous in cells; host or cells: KBA1 (HeLa-derived) cells; matched non-P-gp line KB31
T1 sequence (P08183 whole entry): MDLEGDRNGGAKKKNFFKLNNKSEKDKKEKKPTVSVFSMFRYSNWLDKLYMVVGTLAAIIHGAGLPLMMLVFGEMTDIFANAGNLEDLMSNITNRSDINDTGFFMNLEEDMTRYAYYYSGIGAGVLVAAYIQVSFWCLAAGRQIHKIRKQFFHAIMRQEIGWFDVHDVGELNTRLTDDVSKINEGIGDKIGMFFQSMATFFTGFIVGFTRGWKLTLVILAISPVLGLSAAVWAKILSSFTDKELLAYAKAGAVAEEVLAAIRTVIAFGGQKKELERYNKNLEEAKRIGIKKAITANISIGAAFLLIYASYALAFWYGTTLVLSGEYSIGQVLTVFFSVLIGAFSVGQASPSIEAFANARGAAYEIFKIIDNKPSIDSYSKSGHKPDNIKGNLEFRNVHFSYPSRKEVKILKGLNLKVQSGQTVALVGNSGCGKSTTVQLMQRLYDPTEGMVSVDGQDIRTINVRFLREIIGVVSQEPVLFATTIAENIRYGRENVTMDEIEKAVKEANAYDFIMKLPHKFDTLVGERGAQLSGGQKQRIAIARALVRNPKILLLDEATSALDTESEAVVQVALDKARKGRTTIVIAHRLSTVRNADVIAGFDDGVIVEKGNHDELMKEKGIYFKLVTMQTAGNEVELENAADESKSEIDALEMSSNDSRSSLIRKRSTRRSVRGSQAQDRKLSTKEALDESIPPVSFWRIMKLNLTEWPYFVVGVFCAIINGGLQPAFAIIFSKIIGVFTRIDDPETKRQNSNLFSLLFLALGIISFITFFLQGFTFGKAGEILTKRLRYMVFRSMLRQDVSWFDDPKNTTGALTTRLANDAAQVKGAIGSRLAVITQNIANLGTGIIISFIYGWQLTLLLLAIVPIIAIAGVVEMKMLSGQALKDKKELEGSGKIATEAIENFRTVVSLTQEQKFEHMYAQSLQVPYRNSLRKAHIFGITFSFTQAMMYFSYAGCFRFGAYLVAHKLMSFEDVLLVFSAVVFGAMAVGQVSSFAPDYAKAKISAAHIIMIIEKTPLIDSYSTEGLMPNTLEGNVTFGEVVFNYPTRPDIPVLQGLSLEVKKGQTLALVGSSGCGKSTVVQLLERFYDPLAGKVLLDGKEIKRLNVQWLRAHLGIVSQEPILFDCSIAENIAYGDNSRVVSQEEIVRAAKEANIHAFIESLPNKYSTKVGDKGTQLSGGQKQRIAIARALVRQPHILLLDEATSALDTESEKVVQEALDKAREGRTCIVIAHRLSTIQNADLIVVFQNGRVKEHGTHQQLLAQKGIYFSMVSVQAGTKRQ
Experimental: Cells from the Hela cell line known as KBA1, which expressed high P-glycoprotein (ABC1a and ABC1b transporter glycoproteins also known as MDR1a and MDR1b) and the matched non-P-glycoprotein expressing line known as KB31, were seeded onto 96 well tissue culture plates with 80 μl per well of 1.00×10^4 cells/ml=800 cells/well [DMEM, 10% FBS, PSG] and left to adhere for 4 hours. After the incubation period 10 μl per well of 200 μM Verapamil (giving a final conc. of 20 μM) a known inhibitor of P-gp or vehicle media were added to various wells of the cell plates. The 96 well plates were left in the incubator for 1 hour prior to 10 μl of test compound (or the known substrate Etoposide as a reference control) or 10 μl PBS/1% DMSO vehicle (control wells) being added into either Verapamil containing or media control wells. […]
The cell plates were then incubated for 5 days prior to cell growth being assessed using the Sulforhodamine B (SRB) assay as described previously. The P-gp substrate activity for each compound was calculated using the cell growth activity of the tests compounds on the KBA1 cells in the presence or absence (control wells) of Verapamil. The Dose Modification Ratio (DMR) is calculated from the KBA1 where for each test compound a ratio of the IC50 of the compound in the absence of Verapamil is divided by the IC50 of cell growth in the presence of Verapamil. […]

[2] = Solubility in 0.1 M phosphate buffer; type: physicochemical; conditions: pH 7.4, 24 hours, 25° C.
Experimental: The solubility of the test compounds was measured following a method described in Leach, A., et al., J Med Chem (2006), 49(23), 6672-6682:
Solubility values are determined from agitation of compounds in 0.1 M phosphate buffer at pH 7.4 for 24 hours at 25° C. The supernatant is separated from undissolved material by double centrifugation and subsequently analysed and quantified against a standard of known concentration in DMSO using generic HPLC-UV methodology coupled with mass spectral peak identification.

COC1CCN(C(=O)c2cc(Cc3n[nH]c(=O)c4ccccc34)ccc2F)CC1 [Compound 2b, 4-(4-fluoro-3-(4-methoxypiperidine-1-carbonyl)benzyl)phthalazin-1(2H)-one]
PF50 (30 nM) (HeLa cells): 3.0
PF50 (200 nM) (HeLa cells): 15
Dose Modification Ratio (DMR) [1]: 1.3
solubility [2]: 1070 µmol

CCOC1CCN(C(=O)c2cc(Cc3n[nH]c(=O)c4ccccc34)ccc2F)CC1 [Compound 2f, 4-(3-(4-ethoxypiperidine-1-carbonyl)-4-fluorobenzyl)phthalazin-1(2H)-one]
PF50 (30 nM) (HeLa cells): 14.1
PF50 (200 nM) (HeLa cells): 25
Dose Modification Ratio (DMR) [1]: 1.0
solubility [2]: 211 µmol
